Columns and labels:
KRAS G12S = KRAS G12S (Homo sapiens (Human), UniProt P01116+P62937, G12S); assay: Ras-Raf (BRAF RBD) disruption / FRET / MOA assay, KRAS G12S; assay type: biochemical; conditions: Ras-Raf disruption/FRET/MOA assay; class symbols; read-out: KRAS G12S FRET data IC50
Procedure, shortened: (§1)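 Compound-driven ternary complex of nucleotide-loaded Ras with cyclophilin A, disrupting BRAF RBD binding. 10-point 3-fold dilution from 30 μM final, 3 h at 25° C, then anti-His Eu-W1024 (10 nM) and anti-GST allophycocyanin (50 nM) for 1.5 h. IC50 from TR-FRET ratio decrease versus DMSO.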

[1] = tested on: NCI-H358 cells (K-Ras G12C); assay: Potency assay: pERK in NCI-H358 cells; assay type: cell-based, human; conditions: Homo sapiens, NCI-H358; H358 KRAS G12C; read-out: pERK EC50
Procedure, shortened: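 Compounds are dosed as ten 3-fold dilutions from a 10 mM DMSO stock, in duplicate, and left on cells for 4 h at 37 °C, 5% CO2. Phospho-ERK1/2 is then quantified by AlphaLISA SureFire Ultra or In-Cell Western, and IC50 is derived from a 4-parameter sigmoid against log concentration.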

KRAS WT = KRAS WT (Homo sapiens (Human), UniProt P01116+P62937); assay: Ras-Raf (BRAF RBD) disruption / FRET / MOA assay, KRAS WT; assay type: biochemical; conditions: read-out: IC50* KRAS WT FRET data
Sequence of KRAS WT (P01116-2 other isoform, or with tags, fused parts or gaps): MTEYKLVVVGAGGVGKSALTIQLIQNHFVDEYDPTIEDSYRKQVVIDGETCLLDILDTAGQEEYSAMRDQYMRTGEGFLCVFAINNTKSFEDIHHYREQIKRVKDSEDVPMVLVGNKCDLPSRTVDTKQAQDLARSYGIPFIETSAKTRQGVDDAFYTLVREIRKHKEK
Sequence of KRAS WT (P62937 whole entry): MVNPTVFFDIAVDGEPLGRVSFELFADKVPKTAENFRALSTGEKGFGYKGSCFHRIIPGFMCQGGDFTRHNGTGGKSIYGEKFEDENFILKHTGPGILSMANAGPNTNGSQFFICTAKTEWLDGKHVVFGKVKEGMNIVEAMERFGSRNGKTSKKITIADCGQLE
Procedure, shortened: as §1

KRAS G12D = KRAS G12D (Homo sapiens (Human), UniProt P01116+P62937, G12D); assay: Ras-Raf (BRAF RBD) disruption / FRET / MOA assay, KRAS G12D; assay type: biochemical; conditions: Ras-Raf disruption/FRET/MOA assay; class symbols; read-out: KRAS G12D FRET data IC50
Sequence of KRAS G12D (P01116-2 other isoform, or with tags, fused parts or gaps G12D): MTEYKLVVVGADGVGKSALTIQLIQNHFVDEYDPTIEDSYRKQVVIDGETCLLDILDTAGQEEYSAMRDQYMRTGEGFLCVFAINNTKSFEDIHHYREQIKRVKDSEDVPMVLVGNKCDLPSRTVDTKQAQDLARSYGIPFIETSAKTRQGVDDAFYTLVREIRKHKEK
Sequence of KRAS G12D (P62937 whole entry): as the sequence (P62937 whole entry) above
Procedure, shortened: as §1

NCI-H358 (K-Ras G12C) = assay: CellTiter-Glo cell viability assay, NCI-H358; assay type: cell-based, human; conditions: Homo sapiens, NCI-H358, 120 h, NCI-H358, 5-day treatment; class symbols; read-out: Additional H358 Cell Viability assay data (K-Ras G12C, IC50)
Procedure, shortened: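 Luminescent viability readout on day 5 after direct compound addition to plated cells; plates sat ~30 min at room temperature before reading. Values expressed as percent of mean DMSO signal, curves fit with a four-parameter logistic model.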

Sequence of KRAS G12S (P01116-2 other isoform, or with tags, fused parts or gaps G12S): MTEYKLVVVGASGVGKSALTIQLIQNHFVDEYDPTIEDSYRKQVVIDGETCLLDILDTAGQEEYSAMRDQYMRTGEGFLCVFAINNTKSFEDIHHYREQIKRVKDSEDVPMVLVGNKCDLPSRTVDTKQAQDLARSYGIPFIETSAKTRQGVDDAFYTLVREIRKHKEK
Sequence of KRAS G12S (P62937 whole entry): as the sequence (P62937 whole entry) above

Compound: C=CC(=O)N(C)C[C@H]1CCN(C(=O)N(C)[C@H](C(=O)N[C@H]2Cc3nc(cs3)-c3ccc4c(c3)c(c(-c3cccnc3[C@H](C)OC)n4CC)CC(C)(C)COC(=O)[C@@H]3CCCN(N3)C2=O)C(C)C)C1 (atropisomer, axis not shown) [Example A653]
- IC50 (KRAS G12S): 100 to 1000 nM
- EC50 [1]: < 5000 nM
- IC50 (KRAS WT): 100 to 1000 nM
- IC50 (KRAS G12D): 100 to 1000 nM
- IC50 (NCI-H358 (K-Ras G12C)): 10 to 100 nM

Compound: C=CC(=O)N(C)C[C@@H]1CCN(C(=O)N(C)[C@H](C(=O)N[C@H]2Cc3nc(cs3)-c3ccc4c(c3)c(c(-c3cccnc3[C@H](C)OC)n4CC)CC(C)(C)COC(=O)[C@@H]3CCCN(N3)C2=O)C(C)C)C1 (atropisomer, axis not shown) [Example A654]
- IC50 (KRAS G12S): 100 to 1000 nM
- EC50 [1]: < 5000 nM
- IC50 (KRAS WT): 100 to 1000 nM
- IC50 (KRAS G12D): 100 to 1000 nM
- IC50 (NCI-H358 (K-Ras G12C)): 10 to 100 nM

Compound: CCn1c(-c2cccnc2[C@H](C)OC)c2c3cc(ccc31)-c1cccc(c1)C[C@H](NC(=O)[C@@H](COC1CN(C(=O)C#CC(C)(C)N(C)CCO)C1)C(C)C)C(=O)N1CCC[C@H](N1)C(=O)OCC(C)(C)C2 (atropisomer, axis not shown) [Example A657]
- IC50 (KRAS G12S): > 10000 nM
- EC50 [1]: < 5000 nM
- IC50 (KRAS WT): > 10000 nM
- IC50 (KRAS G12D): > 10000 nM
- IC50 (NCI-H358 (K-Ras G12C)): < 10 nM

Compound: CCn1c(-c2cccnc2[C@H](C)OC)c2c3cc(ccc31)-c1csc(n1)C[C@H](NC(=O)[C@@H](COC1CN(C(=O)C#CC(C)(C)N(C)C)C1)OC)C(=O)N1CCC[C@H](N1)C(=O)OCC(C)(C)C2 (atropisomer, axis not shown) [Example A660]
- IC50 (KRAS G12S): 1000 to 10000 nM
- EC50 [1]: < 5000 nM
- IC50 (KRAS WT): 100 to 1000 nM
- IC50 (KRAS G12D): 1000 to 10000 nM
- IC50 (NCI-H358 (K-Ras G12C)): < 10 nM

Compound: C=CC(=O)N1CC[C@@]2(CCN2C(=O)N(C)[C@H](C(=O)N[C@H]2Cc3nc(cs3)-c3ccc4c(c3)c(c(-c3cccnc3[C@H](C)OC)n4CC)CC(C)(C)COC(=O)[C@@H]3CCCN(N3)C2=O)C(C)C)C1 (atropisomer, axis not shown) [Example A661]
- IC50 (KRAS G12S): 100 to 1000 nM
- EC50 [1]: < 5000 nM
- IC50 (KRAS WT): 100 to 1000 nM
- IC50 (KRAS G12D): 1000 to 10000 nM
- IC50 (NCI-H358 (K-Ras G12C)): < 10 nM

Compound: CCn1c(-c2cccnc2[C@H](C)OC)c2c3cc(ccc31)C1=CCCN(C1)C[C@H](NC(=O)[C@@H](COC1CN(C(=O)C#CC(C)(C)N(C)C)C1)C(C)C)C(=O)N1CCC[C@H](N1)C(=O)OCC(C)(C)C2 (atropisomer, axis not shown) [Example A663, (2R)-2-(((1-(4-(dimethylamino)-4-methylpent-2-ynoyl)405yridine405-3-yl)oxy)methyl)-N-((6^3S,4S)-1^1-ethyl-1^2-(2-((S)-1-methoxyethyl)405yridine-3-yl)-10,10-dimethyl-5,7-dioxo-2^1,2^2,2^3,2^6,6^1,6^2,6^3,6^4,6^5,6^6-decahydro-1^1H-8-oxa-1(5,3)-indola-6(1,3)-pyridazina-2(5,1)-pyridinacycloundecaphane-4-yl)-3-methylbutanamide]
- IC50 (KRAS G12S): > 10000 nM
- EC50 [1]: < 5000 nM
- IC50 (KRAS WT): > 10000 nM
- IC50 (KRAS G12D): > 10000 nM
- IC50 (NCI-H358 (K-Ras G12C)): < 10 nM

Compound: CCn1c(-c2cccnc2[C@H](C)OC)c2c3cc(ccc31)-c1csc(n1)C[C@H](NC(=O)[C@H](C(C)C)N(C)C(=O)N1CCN(C(=O)/C=C/CN3CCOCC3)C3(CC3)C1)C(=O)N1CCC[C@H](N1)C(=O)OCC(C)(C)C2 (atropisomer, axis not shown) [Example A665]
- IC50 (KRAS G12S): 10 to 100 nM
- EC50 [1]: < 5000 nM
- IC50 (KRAS WT): 10 to 100 nM
- IC50 (KRAS G12D): 100 to 1000 nM
- IC50 (NCI-H358 (K-Ras G12C)): < 10 nM

Compound: CCn1c(-c2cccnc2[C@H](C)OC)c2c3cc(ccc31)-c1csc(n1)C[C@H](NC(=O)[C@H](C(C)C)N(C)C(=O)N1CCC3(CC1)CN(C(=O)/C=C/CN1CCOCC1)C3)C(=O)N1CCC[C@H](N1)C(=O)OCC(C)(C)C2 (atropisomer, axis not shown) [Example A669]
- IC50 (KRAS G12S): 100 to 1000 nM
- EC50 [1]: < 5000 nM
- IC50 (KRAS WT): 100 to 1000 nM
- IC50 (KRAS G12D): 100 to 1000 nM
- IC50 (NCI-H358 (K-Ras G12C)): 10 to 100 nM

Compound: CCn1c(-c2cccnc2[C@H](C)OC)c2c3cc(ccc31)-c1csc(n1)C[C@H](NC(=O)[C@H](C(C)C)N(C)C(=O)N1CCC3(CC1)CN(C(=O)/C=C/CN1CCCCC1)C3)C(=O)N1CCC[C@H](N1)C(=O)OCC(C)(C)C2 (atropisomer, axis not shown) [Example A670]
- IC50 (KRAS G12S): 100 to 1000 nM
- EC50 [1]: < 5000 nM
- IC50 (KRAS WT): 100 to 1000 nM
- IC50 (KRAS G12D): 1000 to 10000 nM
- IC50 (NCI-H358 (K-Ras G12C)): 10 to 100 nM

Compound: C/C=C/C(=O)N1CC2(CCN(C(=O)N(C)[C@H](C(=O)N[C@H]3Cc4nc(cs4)-c4ccc5c(c4)c(c(-c4cccnc4[C@H](C)OC)n5CC)CC(C)(C)COC(=O)[C@@H]4CCCN(N4)C3=O)C(C)C)CC2)C1 (atropisomer, axis not shown) [Example A671]
- IC50 (KRAS G12S): 100 to 1000 nM
- EC50 [1]: < 5000 nM
- IC50 (KRAS WT): 100 to 1000 nM
- IC50 (KRAS G12D): 100 to 1000 nM
- IC50 (NCI-H358 (K-Ras G12C)): 10 to 100 nM

— patent US11566007B2, “Ras inhibitors” (Revolution Medicines, Inc., priority 2019, dated 2023)
